Assay results reported in patent US12419837B2, “Liposomal composition containing mild acidic active agent” (TAIWAN LIPOSOME COMPANY, LTD., priority 2016, dated 2025).
Like-named read-outs stand apart in the source and are kept apart here.

Key:
Solubility = type: physicochemical; details: PGE1 as API
[1] = cited from earlier work

solubility in tert-Butyl alcohol (TBA) (Solubility): soluble
solubility in water (Solubility): water-insoluble
SMILES: CCCCC[C@H](O)/C=C/[C@H]1[C@H](O)CC(=O)[C@@H]1CCCCCCC(=O)O [PGE1, Prostaglandin E1]
half life in human body ([1]; human body (b5)): about 30 seconds
half life in human body ([1]; human body): 0.5 min and 10 min
